These results are taken from patent US8927723B2, “Preparation of pyridonecarboxylic acid antibacterials” (AbbVie, Inc., priority 2004, dated 2015).

SMILES strings stand for the structures. ≈ marks a conversion by molar mass, not a printed value.

This data set in a line: solubility of compounds having formula (VII) in ethyl acetate. As to conditions: organic solvent or mixture.

As for `CCOC(=O)c1cn(-c2nc(N)c(F)cc2F)c2cc(N3CC(OC(=O)C(C)C)C3)c(F)cc2c1=O` [CH(CH3)2, ethyl 1-(6-amino-3,5-difluoropyridin-2-yl)-6-fluoro-7-(3-(isobutyryloxy)azetidin-1-yl)-4-oxo-1,4-dihydroquinoline-3-carboxylate], the solubility was determined as 6400 µg/mL (≈ 12.7 mM).

In general, solubility refers to the dissolved amount per volume that the medium holds.
